The values that follow come from US8093241B2, “Acid amide derivatives, process for their production and pesticides containing them” (Ishihara Sangyo Kaisha, Ltd., priority 2001, dated 2012).

Tested on in one series: not given
Experiment: not given
Settings: not given
One may read the melting point as the temperature, or range, at which the solid turns liquid. As for `CC(C)(NC(=O)c1c(F)cccc1F)C(=O)c1ccsc1` [Compound No. 6-5, 2,6-difluoro-N-[1-methyl-1-(3-thenoyl)ethyl]benzamide], the melting point fell in the range of 139 to 142 °C.
Compound `CC(C)(NC(=O)c1c(F)cccc1F)C(=O)c1ccc(C(F)(F)F)cn1` [Compound No. 8-43, 2,6-difluoro-N-[2-(5-trifluoromethyl-2-pyridylcarbonyl)-2-propyl]benzamide] came in with a melting point of 116 to 119 °C.

The next series concerns Southern Root-Knot Nematode (Meloidgyne incognita). In words: Test on southern root-knot nematode (soil incorporation). The class given is in vivo. Also on record: key: 0: No knot was formed; 1: Knots were formed to a slight degree; 2: Knots were formed to a moderate degree; 3: Knots were formed to a heavy degree; 4: Knots were formed to the heaviest degree. The note with it: 7 ml of 1600 ppm solution to 300 ml contaminated soil, tomato seedling, three to four weeks after transplantation. The procedure:
Test on Southern Root-Knot Nematode (Meloidgyne incognita) (Soil Incorporation)
To 300 ml of the soil contaminated by southern root-knot nematode, 7 ml of a chemical solution having the concentration of the compound of the present invention adjusted to be 1600 ppm, is poured, followed by mixing so that the compound is uniformly dispersed. The treated soil is put into a pot (diameter: 9 cm, height: 8 cm), and then a tomato seedling in 2-leaf stage is transplanted and placed in a greenhouse. After three to four weeks from the transplantation of the tomato, the root knot index is determined based on the following standards. […] For example, the compound Nos. 1-25, 1-26, 1-73, 1-100, 1-122, 1-123, 1-125, 1-127, 1-130, 1-131, 1-133, 1-136, 1-137, 1-139, 1-140, 1-172, 1-173, 1-177, 5-5, 5-9, 5-11, 5-16, 5-20, 8-2, 8-5, 13-2, 13-4, 13-6, 13-7, 13-18, 13-19, 13-44, 13-45, 16-32, 16-37 and 16-38 were at a level of a root knot index of not more than 1.
Take “2-fluoro-N-[2-[(2,2,3,3,-tetrafluoro-5-methyl-1,4-benzodioxan-6-yl)carbonyl]-2-propyl]benzamide [Compound No. 16-37]”: the root knot index is listed as 1.
`CC(C)(NC(=O)c1c(F)cccc1F)C(=O)c1ccc(OS(C)(=O)=O)cc1` [Compound No. 1-25, 2,6-difluoro-N-[(1,1-dimethyl-4′-methylsulfonyloxy)phenacyl]benzamide] came in with a root knot index of 1.
Compound `CC(C)(NC(=O)c1c(F)cccc1F)C(=O)c1ccc(OS(=O)(=O)C(F)(F)F)cc1` [Compound No. 1-26, 2,6-difluoro-N-[(1,1-dimethyl-4′-trifluoromethylsulfonyloxy)phenacyl]benzamide] came in with a root knot index of 1.
The same measure, in the same setting: as for `CC(C)(NC(=O)c1ccccc1C(N)=O)C(=O)c1ccc(Cl)cc1` [Compound No. 1-122, 2-aminocarbonyl-N-[(4′-chloro-1,1-dimethyl)phenacyl]benzamide], the figure is 1.
